How the values were obtained:
[1] = target: PD-L1 His protein / PD-1 Fc protein (Homo sapiens (Human), UniProt Q9NZQ7); experiment: HTRF Assay (PD-1/PD-L1 interaction); format: binding; conditions: PD-L1 His 6 nM, PD-1 Fc 6 nM
human PD-L1 = human PD-L1 (Homo sapiens (Human), UniProt Q9NZQ7); experiment: T cell activation luciferase reporter cell culture system (T Cell Activation Assay); format: cell-based; conditions: luciferase reporter assay; PD-L1 aAPC/CHO-K1 cells with PD-1 effector Jurkat T cells
Sequence of human PD-L1 (Q9NZQ7 19-290): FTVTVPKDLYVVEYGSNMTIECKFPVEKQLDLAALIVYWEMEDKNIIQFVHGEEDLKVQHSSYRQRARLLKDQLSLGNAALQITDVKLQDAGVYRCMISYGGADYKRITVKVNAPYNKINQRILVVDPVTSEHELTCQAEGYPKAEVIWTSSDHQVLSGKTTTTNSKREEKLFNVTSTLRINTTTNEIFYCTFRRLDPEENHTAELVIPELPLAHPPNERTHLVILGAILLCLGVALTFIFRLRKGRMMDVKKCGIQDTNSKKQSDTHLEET

Sequence of PD-L1 His protein / PD-1 Fc protein (Q9NZQ7 19-238): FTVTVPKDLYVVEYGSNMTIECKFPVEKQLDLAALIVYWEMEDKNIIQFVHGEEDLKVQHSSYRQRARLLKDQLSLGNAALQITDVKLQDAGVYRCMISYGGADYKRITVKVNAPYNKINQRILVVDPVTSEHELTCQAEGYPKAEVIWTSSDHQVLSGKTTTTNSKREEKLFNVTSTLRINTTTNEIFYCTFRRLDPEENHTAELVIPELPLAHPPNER

Structure (SMILES) | IC50 [1] [nM] | EC50 (human PD-L1) [nM]
COc1nc(-c2cccc(-c3ccnc(-c4cc(OC)c5nc(CN6CC(C)(O)C6)nn5c4)c3Cl)c2Cl)ccc1CNC1CCN(C(C)=O)CC1 [Example 637, 1-(4-(((6-(2-chloro-3-(3-chloro-2-(2-((3-hydroxy-3-methylazetidin-1-yl)methyl)-8-methoxy-[1,2,4]triazolo[1,5-a]pyridin-6-yl)pyridin-4-yl)phenyl)-2-methoxypyridin-3-yl)methyl)amino)piperidin-1-yl)ethan-1-one] | 0.29 | 116
COc1cc(-c2nccc(-c3cccc(-c4ccc(CNC5CCN(C(C)C)CC5)c(OC)n4)c3Cl)c2Cl)ccc1CNC1CCN(C(C)C)CC1 [Example 326, N-((6-(2-Chloro-3-(3-chloro-2-(4-(((1-isopropylpiperidin-4-yl)amino)methyl)-3-methoxyphenyl)pyridin-4-yl)phenyl)-2-methoxypyridin-3-yl)methyl)-1-isopropylpiperidin-4-amine] | 4.23 | 43
COc1nc(-c2cccc(-c3ccnc(-c4ccc(CNC5CCOCC5)c(OC(F)F)c4)c3Cl)c2Cl)ccc1CN1CC2(CNC(=O)C2)C1 [Example 685, 2-((6-(2-Chloro-3-(3-chloro-2-(3-(difluoromethoxy)-4-(((tetrahydro-2H-pyran-4-yl)amino)methyl)phenyl)pyridin-4-yl)phenyl)-2-methoxypyridin-3-yl)methyl)-2,6-diazaspiro[3.4]octan-7-one] | 4.22 | 51.7
COc1cc(-c2nccc(-c3cccc(-c4ccc(CNC5CCN(C(C)=O)CC5)c(OC)n4)c3Cl)c2Cl)ccc1CN1CCC(NC(C)=O)CC1 [Example 325, N-(1-(4-(4-(3-(5-(((1-Acetylpiperidin-4-yl)amino)methyl)-6-methoxypyridin-2-yl)-2-chlorophenyl)-3-chloropyridin-2-yl)-2-methoxybenzyl)piperidin-4-yl)acetamide] | 2.76 | 39.5
Cn1cc(CNC[C@@H]2CCC(=O)N2)c2ccc(-c3nccc(-c4ccnc(-c5ccc6c(CNC[C@@H]7CCC(=O)N7)cn(C)c6c5)c4Cl)c3Cl)cc21 [Compound 15, (5S,5′S)-5,5′-(((((3,3′-dichloro-[4,4′-bipyridine]-2,2′-diyl)bis(1-methyl-1H-indole-6,3-diyl))bis(methylene))bis(azanediyl))bis(methylene))bis(pyrrolidin-2-one)] | 108 | 10000
COc1cc(-c2nccc(-c3cccc(-c4ccc(CNC5CCN(C(C)=O)CC5)c(OC)n4)c3Cl)c2Cl)ccc1CNCC(F)F [Example 513, 1-(4-(((6-(2-Chloro-3-(3-chloro-2-(4-(((2,2-difluoroethyl)amino)methyl)-3-methoxyphenyl)pyridin-4-yl)phenyl)-2-methoxypyridin-3-yl)methyl)amino)piperidin-1-yl)ethan-1-one] | 47.1 | 685
CNCc1ccc(-c2nccc(-c3cccc(-c4ccc(CNC)c(OC)n4)c3Cl)c2Cl)cc1F [Example 283, 1-(6-(2-Chloro-3-(3-chloro-2-(3-fluoro-4-((methylamino)methyl)phenyl)pyridin-4-yl)phenyl)-2-methoxypyridin-3-yl)-N-methylmethanamine] | 3.94 | 36.7
COc1nc(-c2ccnc(-c3cccc4c3CC[C@@H]4Oc3nc(OC)c(CNC4(C(=O)O)CC4)cc3C(F)(F)F)c2Cl)ccc1CNC[C@@H]1CCC(=O)N1 [Compound 129, 1-(((6-(((S)-4-(3′-chloro-6-methoxy-5-(((((S)-5-oxopyrrolidin-2-yl)methyl)amino)methyl)-[2,4′-bipyridin]-2′-yl)-2,3-dihydro-1H-inden-1-yl)oxy)-2-methoxy-5-(trifluoromethyl)pyridin-3-yl)methyl)amino)cyclopropane-1-carboxylic acid] | 0.305 | 16.4
COc1nc(-c2cccc(-c3ccnc(-c4ccc5c(c4)CCC[C@H]5NC[C@@H]4CCC(=O)N4)c3Cl)c2Cl)ccc1CNC[C@@H]1CCC(=O)N1 [Compound 185, (S)-5-((((6-(2-chloro-3-(3-chloro-2-((R)-5-((((S)-5-oxopyrrolidin-2-yl)methyl)amino)-5,6,7,8-tetrahydronaphthalen-2-yl)pyridine-4-yl)phenyl)-2-methoxypyridin-3-yl)methyl)amino)methyl)pyridine1335ne-2-one] | 10.1 | 19.3
COc1cc(-c2nccc(-c3cccc(-c4ccc(CNC5CCN(C(C)=O)CC5)c(OC)n4)c3F)c2F)ccc1CNC1CCN(C(C)=O)CC1 [Example 449, 1-(4-(((6-(3-(2-(4-(((1-acetylpiperidin-4-yl)amino)methyl)-3-methoxyphenyl)-3-fluoropyridin-4-yl)-2-fluorophenyl)-2-methoxypyridin-3-yl)methyl)amino)piperidin-1-yl)ethan-1-one] | 12.9 | ≥ 10000
COc1nc(-c2cccc(-c3ccnc(-c4ccc(CNC5CCN(C(C)=O)CC5)c(OC)n4)c3Cl)c2Cl)ccc1CNC1CCN(C(C)=O)CC1 [Compound 627, 1-(4-(((6-(3-(5′-(((1-Acetylpiperidin-4-yl)amino)methyl)-3-chloro-6′-methoxy-[2,2′-bipyridin]-4-yl)-2-chlorophenyl)-2-methoxypyridin-3-yl)methyl)amino)piperidin-1-yl)ethan-1-one] | 1.96 | 43.4
Cc1c(NC(=O)c2ccc(CNCCO)cn2)cccc1-c1ccnc(-c2ccc(CNC[C@@H]3CCC(=O)N3)c(OC(F)F)c2)c1Cl [Example 770, (S)—N-(3-(3-Chloro-2-(3-(difluoromethoxy)-4-((((5-oxopyrrolidin-2-yl)methyl)amino)methyl)phenyl)pyridin-4-yl)-2-methylphenyl)-5-(((2-hydroxyethyl)amino)methyl)picolinamide] | 0.76 | 24.3
COc1nc(-c2cccc(-c3ccnc(-c4cc(OC)c5nc(CNC(C)C)nn5c4)c3Cl)c2Cl)ccc1CNC(C)C [Compound 763, N-((6-(2-chloro-3-(3-chloro-2-(2-((isopropylamino)methyl)-8-methoxy-[1,2,4]triazolo[1,5-a]pyridin-6-yl)pyridin-4-yl)phenyl)-2-methoxypyridin-3-yl)methyl)propan-2-amine] | 0.25 | 650
COc1cc(-c2cncc(-c3cccc(-c4ccc(CNC5CCN(C(C)=O)CC5)c(OC)n4)c3Cl)c2Cl)ccc1CNC1CCN(C(C)=O)CC1 [Compound 641, 1-(4-(((6-(3-(5-(4-(((1-Acetylpiperidin-4-yl)amino)methyl)-3-methoxyphenyl)-4-chloropyridin-3-yl)-2-chlorophenyl)-2-methoxypyridin-3-yl)methyl)amino)piperidin-1-yl)ethan-1-one] | 0.09 | 107
COc1nc(-c2cccc(-c3ccnc(-c4cnc5c(CNC[C@@H]6CCO6)cn(C)c5c4)c3Cl)c2Cl)ccc1CNC[C@@H]1CCC(=O)N1 [Compound 22, (S)-5-((((6-(2-chloro-3-(3-chloro-2-(1-methyl-3-(((((S)-oxetan-2-yl)methyl)amino)methyl)-1H-pyrrolo[3,2-b]pyridin-6-yl)pyridin-4-yl)phenyl)-2-methoxypyridin-3-yl)methyl)amino)methyl)pyrrolidin-2-one] | 0.3 | 135
COc1cc(-c2nccc(-c3cccc(-c4ccc(CNC5CCN(C(C)=O)CC5)c(OC)n4)c3Cl)c2Cl)ccc1CNC1CCN(S(C)(=O)=O)CC1 [Example 383, 1-(4-(((6-(2-Chloro-3-(3-chloro-2-(3-methoxy-4-(((1-(methylsulfonyl)piperidin-4-yl)amino)methyl)phenyl)pyridin-4-yl)phenyl)-2-methoxypyridin-3-yl)methyl)amino)piperidin-1-yl)ethan-1-one] | 0.998 | 14.4
COc1cc(-c2nccc(-c3cccc(-c4ccc(CNC[C@H](C)O)c(OC)n4)c3Cl)c2Cl)ccc1CNC[C@H](C)O [Example 301, (S)-1-(((6-(2-Chloro-3-(3-chloro-2-(4-((((S)-2-hydroxypropyl)amino)methyl)-3-methoxyphenyl)pyridin-4-yl)phenyl)-2-methoxypyridin-3-yl)methyl)amino)propan-2-ol] | 0.57 | 19.7
COc1nc(-c2ccnc(-c3cccc4c3CC[C@@H]4Oc3nc(OC)c(CNC[C@@H]4CCC(=O)N4)cc3C(F)(F)F)c2Cl)ccc1CNC1CCOCC1 [Example 686, (S)-5-((((6-(((S)-4-(3′-chloro-6-methoxy-5-(((tetrahydro-2H-pyran-4-yl)amino)methyl)-[2,4′-bipyridin]-2′-yl)-2,3-dihydro-1H-inden-1-yl)oxy)-2-methoxy-5-(trifluoromethyl)pyridin-3-yl)methyl)amino)methyl)pyrrolidin-2-one] | 14.8 | 11.1
COc1cc(-c2nccc(-c3cccc(-c4ccc(CNC5CCN(c6ccncc6)CC5)c(OC)n4)c3Cl)c2Cl)ccc1CNC1CCN(c2ccncc2)CC1 [Example 424, N-((6-(2-Chloro-3-(3-chloro-2-(3-methoxy-4-(((1-(pyridin-4-yl)piperidin-4-yl)amino)methyl)phenyl)pyridin-4-yl)phenyl)-2-methoxypyridin-3-yl)methyl)-1-(pyridin-4-yl)piperidin-4-amine] | 3.59 | 86.6
COc1cc(-c2nccc(-c3cccc(-c4ccc(CN5CC6(CNC(=O)C6)C5)c(OC)n4)c3Cl)c2Cl)cc2c1CN(CCC(=O)O)CC2 [Example 294, 3-(6-(3-Chloro-4-(2-chloro-3-(6-methoxy-5-((7-oxo-2,6-diazaspiro[3.4]octan-2-yl)methyl)pyridin-2-yl)phenyl)pyridin-2-yl)-8-methoxy-3,4-dihydroisoquinolin-2(1H)-yl)propanoic acid] | 0.24 | 73.9
CNCc1ccc(-c2cccc(-c3ccnc(-c4ccc(CNCCC(=O)O)c(OC)c4)c3Cl)c2Cl)nc1OC [Compound 221, 3-((4-(3-chloro-4-(2-chloro-3-(6-methoxy-5-((methylamino)methyl)pyridin-2-yl)phenyl)pyridin-2-yl)-2-methoxybenzyl)amino)propanoic acid] | 0.2 | 64.4
